{"source": "patent US20160177395A1", "about": "“BIOMARKERS FOR THE PREDICTION OF RENAL INJURY” (priority 2007, published 2016)", "key": {"[1]": {"test_system": "kidney tissues of treated or untreated rats", "assay": "Real-time qRT-PCR of signature amplicons, validation stage, labeled and un-labeled samples (Table 23)", "conditions": "for AI045075_DB71_seg6 normalized qRT-PCR expression (Interferon stimulated exonuclease 20 (ISG20) transcript) / H31883_DB71_seg13 normalized qRT-PCR expression (Cyclin-G1 (CCNG1) transcript) / MUSCYCG1R_DB81_seg19-20 normalized qRT-PCR expression / W41270_DB81_seg11 normalized qRT-PCR expression (tumor necrosis factor receptor superfamily, member 12a transcript) / W64472_DB81_seg2 normalized qRT-PCR expression (Interferon stimulated exonuclease 20 (ISG20) transcript) / W83813_DB81_seg27 normalized qRT-PCR expression: labeled samples; for Label: true label (Normal/Toxic), known renal toxic effect: rat, in vivo; for H31883_DB71_seg13 normalized qRT-PCR result / MUSCYCG1R_DB81_seg19-20 normalized qRT-PCR result / W41270_DB81_seg11 normalized qRT-PCR result: labeled sample, one line per animal", "in_short": "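Rat kidney RNA, labeled and un-labeled samples, run over seven plates; two amplicons per signature gene (wild-type and splice variant). Values normalized to housekeeping genes, then per plate and amplicon by geometric mean of ratios against a shuffled normalization plate (outliers removed), then scaled.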"}, "[2]": {"test_system": "Sprague-Dawley Crl:CD(SD) rats", "conditions": "rat, in vivo", "method": "(§1) Control animals were treated intraperitoneal with saline.\n(§2) Randomization and group allocation: prior to treatment, the animals were assigned to the experimental groups based on their body weight. Mean body weight of each group at randomization was not deviate±20% of the mean population weight. Males and females were randomized separately. For the randomization, a computer program was used.\n(§3) The day before autopsy, urinalysis was performed and blood samples were taken for hematology and clinical chemistry examinations.\n(§4) On the day of autopsy the animals were anaesthetized with isoflurane, blood was collected for PBMC isolation then subjected to autopsy. Tissues and organs (adrenals, brain, kidneys, liver, spleen and thymus) were weighed and subjected to gross pathological and histopathological examinations."}, "[3]": {"test_system": "Sprague-Dawley Crl:CD(SD) rats", "assay": "Rat toxicity study, single, 5-day and 28-day treatment (clinical observation, clinical pathology, autopsy, organ weights, histopathology);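 further: control rats received saline intraperitoneally, and the organs examined were adrenals, brain, kidneys, liver, spleen and thymus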", "method": "as §1, §2, §3, §4"}, "[4]": {"conditions": "day1, kidney of individual male/female rats, listed as ValpA"}, "[5]": {"conditions": "day5, kidney of individual male/female rats, listed as ValpA"}, "[6]": {"conditions": "day28, kidney of individual male/female rats, listed as ValpA"}, "[7]": {"conditions": "day1, female rat kidney, listed as Tob"}, "[8]": {"conditions": "day1, male rat kidney, listed as Tob"}, "[9]": {"conditions": "day28, female rat kidney, listed as Tob"}, "[10]": {"conditions": "day28, male rat kidney, listed as Tob"}, "[11]": {"conditions": "day1, kidney of individual male/female rats, listed as Tob"}, "[12]": {"conditions": "day5, kidney of individual male/female rats, listed as Tob"}, "[13]": {"conditions": "day28, kidney of individual male/female rats, listed as Tob"}}, "note": "Several values for one entry are separate records, joined by “and”; a condition that tells them apart may be missing. Identical values can stand only once. Entries after “also recorded” stand apart in the source; their conditions may differ."}
{"smiles": "CCCC(CCC)C(=O)O", "note": "[Valproic acid]", "values": [{"measurement": "AI045075_DB71_seg6 normalized qRT-PCR expression (Interferon stimulated exonuclease 20 (ISG20) transcript)", "setting": "[1]; [4]", "value": "1.006 and 1.436 and 2.189 and 0.983 and 1.098 and 1.522"}, {"measurement": "H31883_DB71_seg13 normalized qRT-PCR expression (Cyclin-G1 (CCNG1) transcript)", "setting": "[1]; [4]", "value": "1.488 and 1.506 and 0.999 and 0.721 and 1.041"}, {"measurement": "MUSCYCG1R_DB81_seg19-20 normalized qRT-PCR expression", "setting": "[1]; [4]", "value": "2.289 and 1.581 and 1.842 and 1.929 and 0.637 and 0.9"}, {"measurement": "W41270_DB81_seg11 normalized qRT-PCR expression (tumor necrosis factor receptor superfamily, member 12a transcript)", "setting": "[1]; [4]", "value": "1.134 and 0.939 and 1.405 and 1.225 and 0.547 and 1.544"}, {"measurement": "W64472_DB81_seg2 normalized qRT-PCR expression (Interferon stimulated exonuclease 20 (ISG20) transcript)", "setting": "[1]; [4]", "value": "1.082 and 1.123 and 1.887 and 0.995 and 1.092 and 1.596"}, {"measurement": "W83813_DB81_seg27 normalized qRT-PCR expression", "setting": "[1]; [4]", "value": "1.179 and 0.912 and 1.495 and 1.13 and 0.818 and 1.366"}, {"measurement": "AI045075_DB71_seg6 normalized qRT-PCR expression (Interferon stimulated exonuclease 20 (ISG20) transcript)", "setting": "[1]; [5]", "value": "1.017 and 1.145 and 0.997 and 0.883 and 1.052 and 0.877"}, {"measurement": "H31883_DB71_seg13 normalized qRT-PCR expression (Cyclin-G1 (CCNG1) transcript)", "setting": "[1]; [5]", "value": "0.846 and 0.85 and 0.975 and 0.791 and 0.694 and 1.082"}, {"measurement": "MUSCYCG1R_DB81_seg19-20 normalized qRT-PCR expression", "setting": "[1]; [5]", "value": "1.019 and 1.509 and 1.372 and 0.94 and 1.425 and 1.585"}, {"measurement": "W41270_DB81_seg11 normalized qRT-PCR expression (tumor necrosis factor receptor superfamily, member 12a transcript)", "setting": "[1]; [5]", "value": "0.631 and 1.428 and 1.002 and 0.617 and 0.997"}, {"measurement": "W64472_DB81_seg2 normalized qRT-PCR expression (Interferon stimulated exonuclease 20 (ISG20) transcript)", "setting": "[1]; [5]", "value": "0.92 and 1.226 and 1.169 and 0.702 and 0.812 and 0.894"}, {"measurement": "W83813_DB81_seg27 normalized qRT-PCR expression", "setting": "[1]; [5]", "value": "0.778 and 1.17 and 0.876 and 0.926 and 1.146 and 0.992"}, {"measurement": "AI045075_DB71_seg6 normalized qRT-PCR expression (Interferon stimulated exonuclease 20 (ISG20) transcript)", "setting": "[1]; [6]", "value": "0.696 and 0.906 and 0.669 and 0.822 and 0.77 and 0.719"}, {"measurement": "H31883_DB71_seg13 normalized qRT-PCR expression (Cyclin-G1 (CCNG1) transcript)", "setting": "[1]; [6]", "value": "0.732 and 0.774 and 0.713 and 0.872 and 0.57 and 0.979"}, {"measurement": "MUSCYCG1R_DB81_seg19-20 normalized qRT-PCR expression", "setting": "[1]; [6]", "value": "0.588 and 1.731 and 0.589 and 1.171 and 1.037 and 0.52"}, {"measurement": "W41270_DB81_seg11 normalized qRT-PCR expression (tumor necrosis factor receptor superfamily, member 12a transcript)", "setting": "[1]; [6]", "value": "0.543 and 0.95 and 0.459 and 1.044 and 0.587 and 1.011"}, {"measurement": "W64472_DB81_seg2 normalized qRT-PCR expression (Interferon stimulated exonuclease 20 (ISG20) transcript)", "setting": "[1]; [6]", "value": "1.085 and 0.788 and 0.965 and 1.51 and 0.478 and 0.991"}, {"measurement": "W83813_DB81_seg27 normalized qRT-PCR expression", "setting": "[1]; [6]", "value": "0.493 and 1.254 and 0.46 and 0.875 and 0.761 and 1.208"}, {"measurement": "Label: true label (Normal/Toxic), known renal toxic effect", "setting": "[1]", "value": "Normal"}, {"measurement": "Clinical pathology", "setting": "[2]", "value": "Slightly lower total protein and Albumin values were found in males"}, {"measurement": "Histopathology / renal damage", "setting": "[2]", "value": "No renal damage was found"}, {"measurement": "Water consumption", "setting": "[2]", "value": "Increase in Valproic acid treated females"}, {"measurement": "Water consumption, males", "setting": "[2]", "value": "Sight decrease during the last week"}]}
{"smiles": "NC[C@H]1O[C@H](O[C@H]2[C@H](O)[C@@H](O[C@H]3O[C@H](CO)[C@@H](O)[C@H](N)[C@H]3O)[C@H](N)C[C@@H]2N)[C@H](N)C[C@@H]1O", "note": "[Tobramycin]", "values": [{"measurement": "H31883_DB71_seg13 normalized qRT-PCR result", "setting": "[1]; [7]", "value": "1.153 and 0.799 and 0.982"}, {"measurement": "MUSCYCG1R_DB81_seg19-20 normalized qRT-PCR result", "setting": "[1]; [7]", "value": "5.307 and 1.195 and 1.623"}, {"measurement": "W41270_DB81_seg11 normalized qRT-PCR result", "setting": "[1]; [7]", "value": "1.5 and 0.73 and 1.166"}, {"measurement": "H31883_DB71_seg13 normalized qRT-PCR result", "setting": "[1]; [8]", "value": "1.126 and 0.999 and 1.049"}, {"measurement": "MUSCYCG1R_DB81_seg19-20 normalized qRT-PCR result", "setting": "[1]; [8]", "value": "2.04 and 0.825 and 1.223"}, {"measurement": "W41270_DB81_seg11 normalized qRT-PCR result", "setting": "[1]; [8]", "value": "1.43 and 1.083 and 1.619"}, {"measurement": "H31883_DB71_seg13 normalized qRT-PCR result", "setting": "[1]; [9]", "value": "0.876 and 0.621 and 0.987"}, {"measurement": "MUSCYCG1R_DB81_seg19-20 normalized qRT-PCR result", "setting": "[1]; [9]", "value": "0.959 and 1.021 and 1.478"}, {"measurement": "W41270_DB81_seg11 normalized qRT-PCR result", "setting": "[1]; [9]", "value": "1.073 and 1.144 and 1.118"}, {"measurement": "H31883_DB71_seg13 normalized qRT-PCR result", "setting": "[1]; [10]", "value": "0.39 and 0.832 and 0.803"}, {"measurement": "MUSCYCG1R_DB81_seg19-20 normalized qRT-PCR result", "setting": "[1]; [10]", "value": "0.679 and 1.273 and 1.397"}, {"measurement": "W41270_DB81_seg11 normalized qRT-PCR result", "setting": "[1]; [10]", "value": "0.61 and 1.379 and 1.281"}, {"measurement": "H31883_DB71_seg13 normalized qRT-PCR expression (Cyclin-G1 (CCNG1) transcript)", "setting": "[1]; [11]", "value": "1.137 and 1.104 and 1.132 and 0.912 and 0.563 and 0.661"}, {"measurement": "MUSCYCG1R_DB81_seg19-20 normalized qRT-PCR expression", "setting": "[1]; [11]", "value": "1.582 and 0.967 and 1.506 and 1.173 and 1.025 and 0.987"}, {"measurement": "W41270_DB81_seg11 normalized qRT-PCR expression (tumor necrosis factor receptor superfamily, member 12a transcript)", "setting": "[1]; [11]", "value": "1.601 and 1.084 and 0.577 and 0.949 and 0.809 and 0.983"}, {"measurement": "AI045075_DB71_seg6 normalized qRT-PCR expression (Interferon stimulated exonuclease 20 (ISG20) transcript)", "setting": "[1]; [12]", "value": "1.327 and 1.644 and 1.614 and 1.367 and 2.402 and 1.224"}, {"measurement": "H31883_DB71_seg13 normalized qRT-PCR expression (Cyclin-G1 (CCNG1) transcript)", "setting": "[1]; [12]", "value": "0.863 and 0.855 and 1.237 and 0.988 and 0.858 and 1.646"}, {"measurement": "MUSCYCG1R_DB81_seg19-20 normalized qRT-PCR expression", "setting": "[1]; [12]", "value": "0.99 and 1.589 and 0.968 and 1.6 and 1.424 and 2.062"}, {"measurement": "W41270_DB81_seg11 normalized qRT-PCR expression (tumor necrosis factor receptor superfamily, member 12a transcript)", "setting": "[1]; [12]", "value": "0.559 and 2.483 and 0.802 and 1.529 and 2.317 and 0.946"}, {"measurement": "W64472_DB81_seg2 normalized qRT-PCR expression (Interferon stimulated exonuclease 20 (ISG20) transcript)", "setting": "[1]; [12]", "value": "1.193 and 1.871 and 1.449 and 1.063 and 1.785 and 1.447"}, {"measurement": "W83813_DB81_seg27 normalized qRT-PCR expression", "setting": "[1]; [12]", "value": "0.589 and 1.262 and 0.892 and 1.058 and 0.942 and 1.117"}, {"measurement": "H31883_DB71_seg13 normalized qRT-PCR expression (Cyclin-G1 (CCNG1) transcript)", "setting": "[1]; [13]", "value": "0.624 and 0.324 and 0.69 and 0.528 and 0.551 and 0.807"}, {"measurement": "MUSCYCG1R_DB81_seg19-20 normalized qRT-PCR expression", "setting": "[1]; [13]", "value": "0.713 and 0.76 and 1.087 and 0.889 and 1.268 and 0.903"}, {"measurement": "W41270_DB81_seg11 normalized qRT-PCR expression (tumor necrosis factor receptor superfamily, member 12a transcript)", "setting": "[1]; [13]", "value": "1.189 and 1.217 and 1.099 and 1.267 and 1.373 and 1.798"}, {"measurement": "Label: true label (Normal/Toxic), known renal toxic effect", "setting": "[1]", "value": "Toxic"}, {"measurement": "Water consumption", "setting": "[2]", "value": "Decrease in Tobramycin and Cadmium chloride treated females"}, {"measurement": "Autopsy findings", "setting": "[3]; 5-day treatment", "value": "No effect"}, {"measurement": "Autopsy findings", "setting": "[3]; 28-day treatment, male and female rats", "value": "Enlarged, discolored kidneys; also recorded: Alterations were found in the kidneys; also recorded: ♂: ↑↑, pale"}]}
